The text below walks through data of US20240316038A1, “APOL1 INHIBITORS AND METHODS OF USE” (Maze Therapeutics, Inc., priority 2021, published 2024).

Experiment [1] has as its target T1, APOL1 G2 (Homo sapiens, UniProt O14791, DEL388-389).
T1 construct: expressed in transfected cells; host or cells: HEK293 T-REx clonal lines: HEK T-REx/GCaMP6f/APOL1 G2 K6.3 in A1, HEK293/T-REx APOL1 G2/clone #2 in A2
T1 sequence (O14791 with tags, fused parts or gaps DEL388-389): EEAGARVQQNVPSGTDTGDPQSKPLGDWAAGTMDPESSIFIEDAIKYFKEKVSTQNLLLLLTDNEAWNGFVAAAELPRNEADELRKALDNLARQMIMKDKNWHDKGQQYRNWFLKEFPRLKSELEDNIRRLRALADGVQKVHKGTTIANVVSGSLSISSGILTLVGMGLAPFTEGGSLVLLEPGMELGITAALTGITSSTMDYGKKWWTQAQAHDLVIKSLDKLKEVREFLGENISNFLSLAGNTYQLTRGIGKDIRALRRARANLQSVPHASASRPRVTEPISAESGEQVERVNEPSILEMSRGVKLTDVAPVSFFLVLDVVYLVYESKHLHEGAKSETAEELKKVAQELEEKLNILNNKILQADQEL
Description: Rescue of HEK293 cell death caused by overexpression of APOL1 (CellTiter-Glo luminescence), HEK293/T-REx APOL1 G2/clone #2. The class given is cell-based. Conditions: reversal of cell death caused by overexpression of APOL1; geometric mean of at least 2 assay runs, † = single assay run (technical duplicate). In short, it runs like this:
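Rescue EC50s come from four-parameter logistic fits, geometric mean of at least 2 runs on separate days, each in duplicate. Readout: CellTiter-Glo luminescence after 17 h at 37 °C of 5,000 HEK293/T-REx APOL1 G2 clone #2 cells/well, with 6 ng/mL doxycycline to induce APOL1 and 3-fold serial compound dilutions in 0.5% DMSO.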
A general note: Cellular ATP, detected with luciferase, serves as a proxy for viable cell number.

Experiment [2] addresses T1, APOL1 G2. Nature of the experiment: APOL1 calcium transport inhibition assay (GCaMP6f calcium influx, FLIPR) in HEK T-REx/GCaMP6f/APOL1 G2 K6.3 cells. In kind it is cell-based. The following applies: inhibition of APOL1-mediated calcium influx; geometric mean of at least 2 assay runs, † = single assay run (technical duplicate). In outline: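 HEK293 cells stably expressing GCaMP6f, APOL1 G2 induced 6 h with doxycycline (20 ng/mL added), then washed into Ca2+-free Tyrode's buffer pH 7.4. Compounds (8-point dose response) preincubated 10 min at room temperature, then Ca2+ injected to 5 mM final and influx read on FLIPR. AC50 reported as geometric mean of runs.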

The term pEC50 denotes −log10 of the EC50, conventionally taken in molar units. As a reminder, the AC50 is the midpoint of the concentration-response curve, whichever way the signal moves.

pEC50: −log10 of the molar value.

On to `C[C@]1(O)CN(CCc2cccc(Cl)c2)C[C@@H]1COc1ccc(S(C)(=O)=O)cc1` (single isomer, unassigned) [Compound 206, (3R,4R or 3S,4S)-1-[2-(3-chlorophenyl)ethyl]-4-[(4-methanesulfonylphenoxy)methyl]-3-methylpyrrolidin-3-ol], for which the pEC50 at APOL1 G2 [1] is less than 4.52. Also, the AC50 on APOL1 G2 [2] was more than 25 µM.

As to `C[C@@]1(O)CN(CCc2cccc(Cl)c2)C[C@H]1COc1ccc(S(C)(=O)=O)cc1` (single isomer, unassigned) [Compound 207, (3S,4S or 3R,4R)-1-[2-(3-chlorophenyl)ethyl]-4-[(4-methanesulfonylphenoxy)methyl]-3-methylpyrrolidin-3-ol], at APOL1 G2 [1], the pEC50 was 6.03. Also, at APOL1 G2 [2], the AC50 was 0.34 µM.

Regarding `C[C@@]1(O)CN(CCc2cccc(Cl)c2)C[C@@H]1COc1ccc(S(C)(=O)=O)cc1` (single isomer, unassigned) [Compound 209, (3R,4S or 3S,4R)-1-[2-(3-chlorophenyl)ethyl]-4-[(4-methanesulfonylphenoxy)methyl]-3-methylpyrrolidin-3-ol pyrrolidine-3-ol], at APOL1 G2 [1], the pEC50 is less than 4.71. For the same compound, at APOL1 G2 [2], the AC50 is 3.74 µM.

As for `C[C@]1(O)CN(CCc2cccc(Cl)c2)C[C@H]1COc1ccc(S(C)(=O)=O)cc1` (single isomer, unassigned) [Compound 210, (3S,4R or 3R,4S)-1-[2-(3-chlorophenyl)ethyl]-4-[(4-methanesulfonylphenoxy)methyl]-3-methylpyrrolidin-3-ol], the pEC50 at APOL1 G2 [1] is 5.51. For the same compound, the AC50 at APOL1 G2 [2] amounted to 0.898 µM.

With `CC1CNC(COc2ccc(S(C)(=O)=O)cc2)CN1CCc1cccc(Cl)c1` (single isomer, unassigned) [Compound 212, rac-cis or trans-(2R,5S)-1-[2-(3-chlorophenyl)ethyl]-5-[(4-methanesulfonylphenoxy)methyl]-2-methylpiperazine], the pEC50 at APOL1 G2 [1] is less than 4.84. The AC50 on APOL1 G2 [2] came to 2.55 µM.

With `CC1CNC(COc2ccc(S(C)(=O)=O)cc2)CN1CCc1cccc(Cl)c1` (single isomer, unassigned) [Compound 213, rac-trans or cis-(2R,5S)-1-[2-(3-chlorophenyl)ethyl]-5-[(4-methanesulfonylphenoxy)methyl]-2-methylpiperazine], the pEC50 on APOL1 G2 [1] is 6.02. Also, the AC50 on APOL1 G2 [2] stood at 0.877 µM.

As for `C[C@@H]1C[C@H](COc2ccc(S(C)(=O)=O)cc2)CN1CC(O)c1cccc(Cl)c1` (single isomer, unassigned) [Compound 214, (1R) or (1S)-1-(3-chlorophenyl)-2-[(2R,4S)-4-[(4-methanesulfonylphenoxy)methyl]-2-methylpyrrolidin-1-yl]ethan-1-ol], on APOL1 G2 [1], the pEC50 was 6.17. Also, the half-maximal activity concentration (AC50) on APOL1 G2 [2] stood at 0.428 µM.

As for `C[C@@H]1C[C@H](COc2ccc(S(C)(=O)=O)cc2)CN1CC(O)c1cccc(Cl)c1` (single isomer, unassigned) [Compound 215, (1S) or (1R)-1-(3-chlorophenyl)-2-[(2R,4S)-4-[(4-methanesulfonylphenoxy)methyl]-2-methylpyrrolidin-1-yl]ethan-1-ol], the pEC50 at APOL1 G2 [1] is 7.37. On APOL1 G2 [2], the AC50 came out at 0.229 µM.

On to `CS(=O)(=O)c1ccc(OCC2CCCCN(CCc3cccc(Cl)c3)C2)cc1` (centres unmarked) [Compound 1, 1-(3-chlorophenethyl)-3-((4-(methylsulfonyl)phenoxy)methyl)azepane], for which, on APOL1 G2 [1], the pEC50 is 6.28. Besides, the AC50 at APOL1 G2 [2] was not above 0.253 µM.

For `CS(=O)(=O)c1ccc(OCC2(O)CCCN(CCc3cccc(Cl)c3)C2)cc1` (centres unmarked) [Compound 4, 1-(3-chlorophenethyl)-3-((4-(methylsulfonyl)phenoxy)methyl) piperidin-3-ol], on APOL1 G2 [1], the pEC50 was 5.63. Besides, at APOL1 G2 [2], the AC50 amounted to 1.07 µM.

For the compound `CN(c1ccc(OCC2CCCN(CCc3cccc(Cl)c3)C2)cc1)S(C)(=O)=O` (centres unmarked) [Compound 7, N-(4-((1-(3-chlorophenethyl)piperidin-3-yl)methoxy)phenyl)-N-methylmethanesulfonamide], the pEC50 at APOL1 G2 [1] was 6.49. Also, the AC50 on APOL1 G2 [2] was less than 0.253 µM.

Consider `CN(c1ccc(OCC2CN(CCc3cccc(Cl)c3)CCCO2)cc1)S(C)(=O)=O` (centres unmarked) [Compound 10, N-(4-((4-(3-chlorophenethyl)-1,4-oxazepan-2-yl)methoxy)phenyl)-N-methylmethane-sulfonamide], for which the pEC50 at APOL1 G2 [1] was 5.61. Also, at APOL1 G2 [2], the AC50 is 1.72 µM.

Turning to `CS(=O)(=O)c1ccc(OC[C@@H]2CN(CCc3cccc(Cl)c3)CCN2)cc1` [Compound 13, (S)-1-(3-chlorophenethyl)-3-((4-(methylsulfonyl)phenoxy)methyl)piperazine], on APOL1 G2 [1], the pEC50 was 6.35. Moreover, the AC50 on APOL1 G2 [2] turned out to be 0.143 µM.

In the case of `CS(=O)(=O)c1ccc(OC[C@H]2CN(CCc3cccc(Cl)c3)CCN2)cc1` [Compound 14, (R)-1-(3-chlorophenethyl)-3-((4-(methylsulfonyl)phenoxy)methyl)piperazine], the pEC50 on APOL1 G2 [1] is less than 4.52. The AC50 on APOL1 G2 [2] turned out to be 3.34 µM.

Regarding `CS(=O)(=O)c1ccc(OC[C@@H]2CCCN(CCc3cccc(Cl)c3)C2)cc1` [Compound 15, (R)-1-(3-chlorophenethyl)-3-((4-(methylsulfonyl)phenoxy)methyl)piperidine], the pEC50 at APOL1 G2 [1] was 6.25. Besides, the AC50 at APOL1 G2 [2] was 0.287 µM.

For `CS(=O)(=O)c1ccc(OC[C@H]2CCCN(CCc3cccc(Cl)c3)C2)cc1` [Compound 16, (S)-1-(3-chlorophenethyl)-3-((4-(methylsulfonyl)phenoxy)methyl)piperidine], the pEC50 at APOL1 G2 [1] was 6.48. Also, the AC50 on APOL1 G2 [2] worked out at 0.231 µM.

With `CS(=O)(=O)c1ccc(OC[C@H]2CCCN(CC(O)c3cccc(Cl)c3)C2)cc1` (stereo partly drawn) [Compound 17, 1-(3-chlorophenyl)-2-((S)-3-((4-(methylsulfonyl)phenoxy)methyl)piperidin-1-yl)ethan-1-ol], the pEC50 at APOL1 G2 [1] was 6.17. Further, the AC50 at APOL1 G2 [2] worked out at 1.37 µM.

With `CS(=O)(=O)c1ccc(OC[C@@H]2CCCN(CC(O)c3cccc(Cl)c3)C2)cc1` (stereo partly drawn) [Compound 20, 1-(3-chlorophenyl)-2-((R)-3-((4-(methylsulfonyl)phenoxy)methyl)piperidin-1-yl)ethanol], on APOL1 G2 [1], the pEC50 is 5.87. Further, the AC50 on APOL1 G2 [2] was determined as 1.76 µM.

Consider `CS(=O)(=O)c1ccc(CCC2CCCN(CCc3cccc(Cl)c3)C2)cc1` (centres unmarked) [Compound 39, 1-(3-chlorophenethyl)-3-(4-(methylsulfonyl)phenethyl)piperidine], for which the pEC50 on APOL1 G2 [1] was 6.04. Besides, the AC50 on APOL1 G2 [2] turned out to be 0.249 µM.

Regarding `CC1(C)CC(COc2ccc(S(C)(=O)=O)cc2)CN1CCc1cccc(Cl)c1` (centres unmarked) [Compound 42, 1-(3-chlorophenethyl)-2,2-dimethyl-4-((4-(methylsulfonyl)phenoxy)methyl) pyrrolidine], the negative logarithm of the EC50 (pEC50) at APOL1 G2 [1] was 7.23. For the same compound, at APOL1 G2 [2], the AC50 turned out to be 0.477 µM.

Take `CN(c1ccc(O[C@H]2C[C@H](NCCc3cccc(Cl)c3)C2)cc1)S(C)(=O)=O` [Compound 48, trans-N-(4-(3-((3-chlorophenethyl)amino)cyclobutoxy)phenyl)-N-methylmethanesulfonamide]: the pEC50 at APOL1 G2 [1] was 5.60. For the same compound, the AC50 on APOL1 G2 [2] came to 1.92 µM.

`CN(c1ccc(OC[C@H]2CCN(CCc3cccc(Cl)c3)C2)cc1)S(C)(=O)=O` [Compound 49, (S)-N-(4-((1-(3-chlorophenethyl)pyrrolidin-3-yl)methoxy)phenyl)-N-methylmethanesulfonamide]: at APOL1 G2 [1], the pEC50 was 6.02. Also, the AC50 at APOL1 G2 [2] is 0.847 µM.
